In patent US9901592B2 (priority 2008, dated 2018):
In brackets after ≈: the same amount, converted by molar mass. Read-outs that look alike come from different tables or passages of the source.

Tests used:
S. pyogenes ATCC 8668 = assay: mouse subcutaneous abscess model; assay type: in vivo; settings: 48 hr. post infection
Description: Example. Mouse Subcutaneous Abscess. Bacteria were prepared from an overnight plate culture by re-suspending in saline and adjusting the suspension to a 0.1 OD at 625 nm of a 1:10 dilution. The adjusted bacterial suspension was mixed 1:2 with cyclodextran beads prepared as per package instructions. The right flanks of the mice were shaven and injected subcutaneously with 0.2 ml of the bacterial inoculum. Two hours post infection mice were treated via oral gavage with either test article or control drug. 48 hours post infection, mice were euthanized, abscesses aseptically removed, homogenized, serially diluted and plated on bacterial growth agar. After overnight incubation, colonies were counted and CFUs/gram of abscess were determined.
Example. Mouse Subcutaneous Abscess˜S. pyogenes ATCC 8668 (Average Log10 CFU/gram of Abscess). Abscess processing 48 hours post infection.

S. pneumoniae [1] = assay: mouse systemic infection model (PD50); assay type: in vivo
S. aureus = assay: mouse systemic infection model (PD50); assay type: in vivo
U. urealyticum = assay: MIC testing in 10B broth (colour change); assay type: cell-based; settings: U. urealyticum (10 isolates)
M. fermentans = assay type: cell-based; settings: M. fermentans (15 isolates)
S. pyogenes = assay: mouse systemic infection model (PD50); assay type: in vivo
M. genitalium = assay type: cell-based; settings: M. genitalium (5 isolates)
M. pneumoniae = assay: microbe, parasite or virus in culture; assay type: cell-based; settings: Mycoplasmoides pneumoniae
U. parvum = assay: MIC testing in 10B broth (colour change); assay type: cell-based, Ureaplasma parvum; settings: U. parvum (10 isolates)
M. hominis = assay type: cell-based; settings: M. hominis (13 isolates)
S. pneumoniae [2] = assay: MIC of the strains of the mouse systemic infection model; assay type: cell-based; settings: Streptococcus pneumoniae
streptococci = assay: organism not typed; assay type: cell-based
[3] = system: intraphagocytic L. pneumophila ATCC 33153 (THP-1); assay type: cell-based; settings: L. pneumophila ATCC 33153, 48 h
S. pneumoniae [4] = assay: neutropenic mouse thigh infection; assay type: in vivo; settings: PO
Description: Example. Neutropenic Mouse Thigh Infection. Mice were rendered neutropenic with IP injections of cyclophosamide at day −4 and day −1 of 150 mg/Kg and 100 mg/Kg, respectively. On day 0 mice were infected with approximately 5×10^5 CFU/ml of bacteria in a 0.1 ml volume into the right thigh. At 1.5 hours post infection mice received treatment via oral gavage. One group of infected mice were euthanized and thigh processed for bacterial titers to serve as T=0 controls. Twenty-four hours post treatment, the remaining mice were euthanized, thighs aseptically removed, weighed, homogenized, serially diluted and plated on bacterial growth media. CFUs per gram of thigh were calculated after overnight incubation of bacterial plates. The amount of test article required to achieve 1, 2, and 3 loge reductions from 24 hour control thighs were calculated. Additional studies were performed that fractionated the single treatment dose (Q24) into two (Q12), three (Q8) and four (Q6) equivalent doses to determine the pharmacodynamic nature of this compound. Further analysis includes static dose, EC50, 1 log kill and maximal effect (Emax).

M. catarrhalis = assay: microbe, parasite or virus in culture; assay type: cell-based
N. meningitidis = assay: MIC, CLSI broth microdilution, invasive isolates; assay type: cell-based; settings: Neisseria meningitidis; 62 N. meningitidis isolates
Description: Example. […] Colonization of the nasopharynx (NP) by NM can lead to invasive meningococcal disease. Chemoprophylaxis is used to eradicate NP colonization and prevent transmission to nonimmune contacts. […] 62 isolates (91.9% blood culture) of NM were collected from 29 medical centers in North and South America and Europe (1997-2008). […] Serological identification was performed for serogroups (SGs) B, C, Y and W135.

S. pyogenes 3029 = assay: Intraperitoneal (IP) mouse infection model (ED50); assay type: in vivo; settings: Streptococcus pyogenes, MAC-R S. pyogenes 3029
[5] = S. pneumoniae (macrolide susceptible)

## CC[C@H]1OC(=O)[C@@](C)(F)C(=O)[C@H](C)[C@@H](OC2OC(C)CC(N(C)C)C2O)[C@@](C)(OC)C[C@@H](C)C(=O)[C@H](C)[C@H]2N(CCCCn3cc(-c4cccc(N)c4)nn3)C(=O)O[C@]12C (stereo partly shown) [CEM-101, 11-N-4-(3-aminophenyl)-[1,2,3]triazol-1-yl]-butyl}-5-desosaminyl-3-oxo-2-fluoro-erythronolide A,-11,12-cyclic carbamate]
S. pyogenes ATCC 8668; 10 mg/Kg
  Average Log10 CFU/gram of Abscess: 5.35 Log10 CFU/gram
S. pyogenes ATCC 8668; 20 mg/Kg
  Average Log10 CFU/gram of Abscess: 2.53 Log10 CFU/gram
S. pneumoniae [1]; [5]
  PD50: 6.0 mg/kg
S. pneumoniae [1]; S. pneumoniae (mefR)
  PD50: 23.2 mg/kg
S. pneumoniae [1]; S. pneumoniae serotype 19A
  PD50: 6.6 mg/kg
S. aureus; MRSA
  PD50: 7.5 mg/kg
S. aureus; MRSA 300 (CA)
  PD50: 9.5 mg/kg
S. aureus; S. aureus, single oral dose 1 hr post infection
  PD50: 16.3 mg/kg
U. urealyticum
  MIC Range: 4 to 63 ng/mL
U. urealyticum; Ureaplasma urealyticum
  MIC50: 8 ng/mL (≈ 9.47 nM)
  MIC90: 31 ng/mL (≈ 36.7 nM)
M. fermentans
  MIC Range: ≦0.008 μg/mL
M. fermentans; Mycoplasmopsis fermentans
  MIC50: ≤ 8 ng/mL
  MIC90: ≤ 8 ng/mL
S. pyogenes; S. pyogenes (erythromycin R)
  PD50: 5.1 mg/kg
S. pyogenes; S. pyogenes (macrolide susceptible)
  PD50: 9.4 mg/kg
M. genitalium
  MIC Range: ≦0.000032 μg/mL
M. pneumoniae
  MIC50: 0.032 ng/mL (≈ 0.0379 nM)
U. parvum
  MIC Range: 2 to 31 ng/mL
U. parvum; Ureaplasma parvum, read-out: MIC50
  MIC50: 8 ng/mL (≈ 9.47 nM)
U. parvum; Ureaplasma parvum, read-out: MIC90
  MIC90: 16 ng/mL (≈ 18.9 nM)
M. hominis
  MIC Range: 2 to 8 ng/mL
M. hominis; Metamycoplasma hominis, read-out: MIC50
  MIC50: 4 ng/mL (≈ 4.73 nM)
M. hominis; Metamycoplasma hominis, read-out: MIC90
  MIC90: 8 ng/mL (≈ 9.47 nM)
S. pneumoniae [2]; [5]
  MIC: < 30 ng/mL
S. pneumoniae [2]; S. pneumoniae (mefR), read-out: MIC
  MIC: < 30 ng/mL
streptococci
  MIC: 60 ng/mL (≈ 71 nM)
[3]
  Cs: 4.56 ×MIC
S. pneumoniae [4]; S. pneumoniae 1629
  Max. change in log10CFUs from 24 hr. controls: −5.81 log10CFUs
S. pneumoniae [4]; S. pneumoniae 1629, QD
  Dose for 2 log10 Reduction from 24 hour controls: 7.0 mg/Kg
S. pneumoniae [4]; S. pneumoniae 6303
  Max. change in log10CFUs from 24 hr. controls: −6.17 log10CFUs
S. pneumoniae [4]; S. pneumoniae 6303, Q6
  Emax: 5.83 log10CFU/thigh
S. pneumoniae [4]; S. pneumoniae 6303, Q8
  EC50: 9.0 mg/kg
S. pneumoniae [4]; S. pneumoniae 6303, Q12
  EC50: 14.5 mg/kg
  Emax: 4.95 log10CFU/thigh
S. pneumoniae [4]; S. pneumoniae 6303, Q24
  1 log kill: 10.8 mg/Kg
  EC50: 5.7 mg/kg
M. catarrhalis
  Occurrences at MIC (μg/ml) 1: 0
  Occurrences at MIC (μg/ml) 2: 0
  Occurrences at MIC (μg/ml) 4: 0
  Occurrences at MIC (μg/ml) 8: 0
  Occurrences at MIC (μg/ml) […]: 0
  Occurrences at MIC (μg/ml) ≧16: 0
M. catarrhalis; Moraxella catarrhalis
  MIC50: 120 ng/mL (≈ 142 nM)
  MIC90: 120 ng/mL (≈ 142 nM)
M. catarrhalis; Moraxella catarrhalis, read-out: Occurrences at MIC (μg/ml) 0.03
  MIC: 1 µg/mL (≈ 1180 nM)
M. catarrhalis; Moraxella catarrhalis, read-out: Occurrences at MIC (μg/ml) 0.06
  MIC: 5 µg/mL (≈ 5920 nM)
M. catarrhalis; Moraxella catarrhalis, read-out: Occurrences at MIC (μg/ml) 0.5
  MIC: 1 µg/mL (≈ 1180 nM)
M. catarrhalis; Moraxella catarrhalis, read-out: Occurrences at MIC (μg/ml) ≦0.008
  MIC: 1 µg/mL (≈ 1180 nM)
N. meningitidis
  MIC50: ≤ 15 ng/mL
  MIC90: ≤ 15 ng/mL
S. pyogenes 3029
  ED50: 2.5 mg/kg
